Data set [1] relates to Antibody B binding to protein A. Put plainly: Binding of Antibody B to protein A after UV-B exposure of the formulation. The note with it: 20 mM additive; pH 6.90 phosphate buffer; 0-24 hours UV-B. As to the method: (§1) For the examples below involving exposure to UVB radiation, each sample was exposed to UVB light (λ≈302 nm) for varying times, using a UVP 8W model UVLMS-38 lamp at 4° C. The formulations were then analyzed using size exclusion chromatography high pressure liquid chromatography (SEC-HPLC). Aggregation (measured via SEC-HPLC analysis) and binding (measured using CM5 gold sensor chips) were measured to determine the effect of the antioxidant on aggregation and bioactivity of the therapeutic protein.
The binding activity of therapeutic protein to a ligand (e.g. to an antibody or binding partner, or, in cases where the therapeutic was an antibody, binding activity to the specific target antigen or to protein A) was determined as follows. […] The therapeutic protein-binding ligand of interest was injected until the desired immobilization level was achieved (above 5000 response units). Three different therapeutic protein-binding ligands were measured—Antibody A's target antigen, Protein A, and D11 (an antibody that binds to erythropoietin). […] The remaining activated groups were blocked with 1.0 M ethanolamine-HCl, pH 8.5.
A standard curve was prepared by using native forms of the therapeutic protein of interest. Native forms of the therapeutic protein were diluted in HBS-EP buffer (pH 7.4) to concentrations between 1 and 5 μg/mL, and then injected on the column, prepared as described above to obtain a standard curve. At the end of each sample run, regeneration buffer was used to wash away any bound therapeutic protein in preparation for subsequent injections.
Various UV-stressed antibody formulations were also diluted in HBS-EP buffer (pH 7.4) to a concentration within the standard curve region, and injected to quantitate the loss of bioactivity to its respective ligand-binding partner.

Another data set deals with EPO. Nature of the data set: SEC-HPLC aggregation/degradation of EPO after UV-B exposure. Type of data set: physicochemical, human. The note with it: pH 6.90, 302 nm UV-B 24 hours. As to the method: as §1, with “protein. The SEC-HPLC conditions were as follows: a G3000 TOSOH SWXL column was used and the flowrate was set at 0.5 mL/min. […] FIG. 4 (EPO), FIG. 5 (anti-streptavidin), and FIG. 6 (Antibody A) show SEC-HPLC chromatograms of each proteins following exposure to 302 nm UV-B light for 24 hours. […] Each formulation was then exposed to 302 nm UV-B light for 24 hours. The protein formulation was then analyzed using SEC-HPLC.” for “protein.”
For orientation: In gel filtration, larger molecules generally elute earlier.

For `COc1cc(/C=C/C(=O)O)ccc1O` [ferulic acid], the “binding of Antibody B to protein A after UV-B exposure” value in data set [1] is recorded as “prevented UV-B induced degradation”. For the same compound, the “amount of EPO dimer and aggregate caused by UV light (SEC-HPLC)” value in the data set with EPO (0.1 mM antioxidant, 0.336 mg/mL EPO, 20 mM sodium phosphate) is “able to reduce the amount of EPO dimer and aggregate”. Moreover, the “prevention of EPO degradation compared with 10 mM methionine (SEC-HPLC)” value in the data set with EPO (0.1 mM antioxidant, 0.336 mg/mL EPO) is listed as “able to prevent EPO degradation more effectively than 10 mM methionine”. Besides, the “amount of aggregate of EPO (SEC-HPLC)” value in the data set on EPO (20 mM antioxidant, 1 mg/mL EPO, 25 mM sodium phosphate, 125 mM sodium chloride) was “dramatically reduced”.

Values taken from patent US12440567B2, “Aqueous antibody formulation stabilized by antioxidants for parenteral administration” (AMGEN INC., priority 2007, dated 2025).
